Read-outs that look alike come from different tables or passages of the source.
Tests used:
[1] = system: tumor cells of a thyroid carcinoma cell line (K1) transfected with hNIS
Method: After a tumor growth for 3 weeks scintigraphic pictures were taken ventrally by means of scintiscanning (gamma camera ZLC370, Siemens) 3 and 24 h following the injection of 2 MBq I-123, 10 MBq Tc-99m-pertechnetate and 0.4 MBq At-211 (RVL=right-ventral-left).
The cDNAs of the therapeutic genes are amplified from human thyreocyte mRNA after reverse transcription by subsequent PCR with gene-specific primers, and the fragments thus obtained are subcloned in a cloning vector (e.g., pCRblunt, Invitrogen) in E. coli (K12 derivative). For this purpose, overlapping cDNA segments of the single genes are used, the fragments allowing the generation of full-length cDNAs due to their common restriction enzyme cleavage sites. The cDNAs are cloned into a vector for constitutive expression in mammalian cells (e.g., in pCIneo under control of the CMV promoter, Promega). The expression vectors with integrated cDNA (FIG. 7A, example) are used for transient transfection of different tumor cell lines (Fugen6, Roche) and for the generation of stably transfected cell lines by antibiotic selection (e.g., G418 for pCIneo). Radionuclide uptake measurements ([I-125], [At-211], [Tc-99m], [Re-188]) with cell cultures (FIGS. 5 and 6) are performed according to the method of Weiss et al. 1984. To establish an animal model stably transfected tumor cell lines and the corresponding control cells, respectively, are subcutaneously injected into nude NMRI mice (nu/nu). After tumor growth in the course of 3-4 weeks and application of different radionuclides (i. a., [I-123], [At-211], [Tc-99m]) sequential scintiscans are taken with a gamma camera and organ distribution over region of interest (ROI) analyses determined (FIG. 4).

[2] = system: tumor cell lines stably transfected with the NIS gene (K1, B-CPAP, 8505-C, SW480, DBTRG); assay: In vitro radionuclide uptake in tumor cell lines stably transfected with the NIS gene; format: cell-based; settings: for radionuclide uptake in control cells: corresponding control cells, not NIS-transfected; for radionuclide uptake in tumor cell lines transfected with NIS: stably transfected K1, B-CPAP, 8505-C, SW480, DBTRG
From the text: FIG. 5A depicts in vitro results of the radionuclide uptake of I-125, Tc-99m-pertechnetate, and At-211 in tumor cell lines stably transfected with the NIS gene as compared to the corresponding control cells: K1 papillary thyroid carcinoma ECACC #92030501, B-CPAP papillary thyroid carcinoma DSMZ #ACC273, 8505-C anaplastic thyroid carcinoma DSMZ #ACC219, SW480 colon carcinoma DSMZ #ACC313, DBTRG glioblastoma DSMZ #ACC359.

[3] = system: stably transfected tumor cell lines (K1-NIS, SW480-NIS); assay: At-211 transport in vitro: Na+ dependency and perchlorate inhibition; format: cell-based
From the text: FIG. 6A depicts the dependency upon Na^+ of the At-211 transport in vitro in stably transfected tumor cell lines (K1-NIS, SW480-NIS), wherein NaCl has been iso-osmotically replaced by choline chloride.

[4] = system: transiently transfected tumor cell lines; assay: I-125 uptake in transiently NIS-transfected tumor cell lines; format: cell-based; settings: also follicular thyroid carcinoma, HepG2, LN-Cap, A498, SK-Mel30, CCF-STTG1, TT
From the text: In FIG. 5B the uptake of I-125 is additionally shown depending on a perchlorate blockage in transiently transfected tumor cell lines. […] The differences in the iodide uptake rates in different cell lines transfected with NIS are caused by the variable transfection efficiency of the distinct cell lines with the method used.

[5] = system: anaplastic thyroid cells transfected with NIS cDNA; settings: NIS-transfected tumor cells implanted into rats; cited from earlier work
[6] = scintigraphically, K1-NIS tumor, NMRI nude mouse, compared to muscle tissue
[7] = scintiscans 3 and 24 h after injection, K1-wt control tumor not shown

| Compound | radionuclide uptake in control cells [2] | radionuclide uptake in tumor cell lines transfected with NIS [2] | higher uptake in the NIS tumor as compared to muscle tissue [1, 6] | enrichment of the tracer in the tumor transfected with NIS [1, 7] | other results |
| --- | --- | --- | --- | --- | --- |
| [At] [At-211] | no uptake | highly significant uptake |  |  | enrichment of the tracer in the tumor transfected with NIS ([1]; mouse, in vivo): significant enrichment; higher uptake in the NIS tumor as compared to muscle tissue ([1]; mouse, in vivo): 10 fold; dependency upon Na+ of the transport ([3]; NaCl iso-osmotically replaced by choline chloride, K1-NIS, SW480-NIS): clear-cut dependency upon Na^+ |
| [123IH] [I-123] |  |  | 60 fold | significant enrichment |  |
| [125IH] [I-125] | no uptake | highly significant uptake |  |  | iodide uptake in transiently transfected tumor cell lines [4]: significant iodide uptake |
| [131IH] [I-131] |  |  |  |  | maximum level after [5]: 90 min |
| [O]=[99Tc](=[O])(=[O])[O-] [Tc-99m-pertechnetate] | no uptake | highly significant uptake | 15 fold | significant enrichment |  |
| [O-][Cl+3]([O-])([O-])O [perchlorate] |  |  |  |  | inhibition of the astate transport ([3]; small perchlorate concentrations): clear inhibition |

Source: US20030118553A1, “Vector constructs for gene-therapy mediated radionuclide therapy of undifferentiated and medullary thyroid carcinomas and non-thyroidal tumours and metastases mediated thereof” (priority 2000, published 2003)
